Source: patent US5977133A, “Pyridone antibiotic with improved safety profile” (priority 1998, dated 1999)
Structures can show the parent of a compound that is named as a salt.

Key:
Type in all cases: cell-based
S. aureus (CiproR) = assay: In vitro MIC, agar dilution; conditions: Staphylococcus aureus
Providencia spp. = assay: In vitro MIC, agar dilution
C. difficile = assay: In vitro MIC, agar dilution; conditions: Clostridioides difficile
S. epidermidis (CiproR) = assay: In vitro MIC, agar dilution; conditions: Staphylococcus epidermidis
Klebsiella spp. = assay: In vitro MIC, agar dilution
M. pneumoniae = assay: In vitro MIC, agar dilution; conditions: Mycoplasmoides pneumoniae; M. pneumoniae, 7 isolates; read-out: MIC Range
H. influenzae = assay: In vitro MIC, agar dilution; conditions: Haemophilus influenzae, H. influenzae, 18 isolates
S. epidermidis (CiproS) = assay: In vitro MIC, agar dilution; conditions: Staphylococcus epidermidis
S. pyogenes = assay: In vitro MIC, agar dilution; conditions: Streptococcus pyogenes
E. coli = assay: In vitro MIC, agar dilution; conditions: Escherichia coli, 25 isolates
Outline: (§1)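 MIC, the lowest compound level without growth versus a drug-free BHI control plate, with faint haze or scattered colonies scored as no growth. About 10^4 CFU was replicator-spotted from 1:100 dilutions, or 1:10 for slow-growing strains, and plates were read after ~20–24 h at 35–37 °C.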

Salmonella spp. = assay: In vitro MIC, agar dilution; conditions: 23 isolates
Outline: as §1

H. pylori = assay: In vitro MIC, agar dilution; conditions: Helicobacter pylori
M. avium = assay: In vitro MIC, agar dilution; conditions: Mycobacterium avium
P. mirabilis = assay: In vitro MIC, agar dilution; conditions: Proteus mirabilis
S. pneumoniae (PenR) = assay: In vitro MIC, agar dilution; conditions: Streptococcus pneumoniae
P. aeruginosa (CiproR) = assay: In vitro MIC, agar dilution; conditions: Pseudomonas aeruginosa, P. aeruginosa (CiproR), 20 isolates
S. aureus (CiproS) = assay: In vitro MIC, agar dilution; conditions: Staphylococcus aureus
M. catarrhalis = assay: In vitro MIC, agar dilution; conditions: Moraxella catarrhalis
Enterobacter spp. = assay: In vitro MIC, agar dilution
E. faecium (CiproR) = assay: In vitro MIC, agar dilution; conditions: Enterococcus faecium; E. faecium (CiproR), 2 isolates; read-out: MIC Range
P. aeruginosa (CiproS) = assay: In vitro MIC, agar dilution; conditions: Pseudomonas aeruginosa, P. aeruginosa (CiproS), 24 isolates
B. fragilis = assay: In vitro MIC, agar dilution; conditions: Bacteroides fragilis
E. faecium (CiproS) = assay: In vitro MIC, agar dilution; conditions: Enterococcus faecium
S. pneumoniae (PenS) = assay: In vitro MIC, agar dilution; conditions: Streptococcus pneumoniae
S. pneumoniae (CiproR) = assay: In vitro MIC, agar dilution; conditions: Streptococcus pneumoniae, read-out: MIC Range
C. freundii = assay: In vitro MIC, agar dilution; conditions: Citrobacter freundii
Shigella spp. = assay: microbe, parasite or virus in culture; conditions: read-out: MIC Range
E. faecium (VanS) = assay: In vitro MIC, agar dilution; conditions: Enterococcus faecium
N. gonorrhoeae = assay: In vitro MIC, agar dilution; conditions: Neisseria gonorrhoeae
Legionella spp. = assay: microbe, parasite or virus in culture; conditions: Legionella

Cc1c(N2C[C@@H](N)C3(CC3)C2)c(F)cn2c(=O)c(C(=O)O)cc(C3CC3)c12 [Example 5, 1-cyclopropyl-8-(7(S)-amino-5-azaspiror2.41heptvl)-7-fluoro-9-methyl4-oxo-4H-quinolizine-3-carboxylic acid hydrochloride]
MIC90 (S. aureus (CiproR)): 0.25 µg/mL | MIC50 (S. aureus (CiproR); S. aureus (CiproR), 25 isolates, read-out: MIC50): 0.12 µg/mL | MIC (S. aureus (CiproR); S. aureus (CiproR), 25 isolates, read-out: MIC Range): 0.03 to 0.5 µg/mL | MIC90 (Providencia spp.; Providencia): 0.06 µg/mL | MIC50 (Providencia spp.; Providencia spp., 28 isolates, read-out: MIC50): 0.015 µg/mL | MIC (Providencia spp.; Providencia spp., 28 isolates, read-out: MIC Range): 0.008 to 0.25 µg/mL | MIC90 (C. difficile): 0.25 µg/mL | MIC (C. difficile; read-out: MIC Range): 0.12 to 0.25 µg/mL | MIC50 (C. difficile; C. difficile, 10 isolates, read-out: MIC50): 0.25 µg/mL | MIC90 (S. epidermidis (CiproR)): 0.25 µg/mL | MIC (S. epidermidis (CiproR); read-out: MIC Range): 0.12 to 1 µg/mL | MIC50 (S. epidermidis (CiproR); S. epidermidis (CiproR), 11 isolates, read-out: MIC50): 0.25 µg/mL | MIC50 (Klebsiella spp.; Klebsiella): 0.03 µg/mL | MIC90 (Klebsiella spp.; Klebsiella): 0.06 µg/mL | MIC (Klebsiella spp.; Klebsiella spp., 29 isolates, read-out: MIC Range): 0.002 to 0.12 µg/mL | MIC (M. pneumoniae): 0.015 to 0.03 µg/mL | MIC50 (H. influenzae; read-out: MIC50): 0.002 µg/mL | MIC90 (H. influenzae; read-out: MIC90): 0.008 µg/mL | MIC (H. influenzae; read-out: MIC Range): 0.001 to 0.008 µg/mL | MIC90 (S. epidermidis (CiproS)): 0.03 µg/mL | MIC50 (S. epidermidis (CiproS); S. epidermidis (CiproS), 23 isolates, read-out: MIC50): 0.015 µg/mL | MIC (S. epidermidis (CiproS); S. epidermidis (CiproS), 23 isolates, read-out: MIC Range): 0.004 to 0.03 µg/mL | MIC50 (S. pyogenes): 0.03 µg/mL | MIC90 (S. pyogenes): 0.03 µg/mL | MIC (S. pyogenes; S. pyogenes, 21 isolates, read-out: MIC Range): 0.015 to 0.06 µg/mL | MIC (E. coli): 0.004 to 0.015 µg/mL | MIC50 (E. coli; read-out: MIC50): ≤ 0.004 µg/mL | MIC90 (E. coli; read-out: MIC90): 0.015 µg/mL | MIC (Salmonella spp.): 0.004 to 0.12 µg/mL | MIC50 (Salmonella spp.; read-out: MIC50): 0.015 µg/mL | MIC90 (Salmonella spp.; read-out: MIC90): 0.03 µg/mL | MIC50 (H. pylori): 0.03 µg/mL | MIC90 (H. pylori): 0.06 µg/mL | MIC (H. pylori; H. pylori, 17 isolates, read-out: MIC Range): 0.015 to 0.06 µg/mL | MIC (M. avium; read-out: MIC Range): 0.25 to 4 µg/mL | MIC50 (M. avium; M. avium, 20 isolates, read-out: MIC50): 1 µg/mL | MIC90 (M. avium; M. avium, 20 isolates, read-out: MIC90): 2 µg/mL | MIC50 (P. mirabilis): 0.03 µg/mL | MIC90 (P. mirabilis): 0.06 µg/mL | MIC (P. mirabilis; read-out: MIC Range): 0.015 to 0.12 µg/mL | MIC90 (S. pneumoniae (PenR)): 0.06 µg/mL | MIC50 (S. pneumoniae (PenR); S. pneumoniae (PenR), 25 isolates, read-out: MIC50): 0.06 µg/mL | MIC (S. pneumoniae (PenR); S. pneumoniae (PenR), 25 isolates, read-out: MIC Range): 0.03 to 0.06 µg/mL | MIC50 (P. aeruginosa (CiproR); read-out: MIC50): 8 µg/mL | MIC90 (P. aeruginosa (CiproR); read-out: MIC90): 16 µg/mL | MIC (P. aeruginosa (CiproR); read-out: MIC Range): 4 to 16 µg/mL | MIC90 (S. aureus (CiproS)): 0.015 µg/mL | MIC50 (S. aureus (CiproS); S. aureus (CiproS), 21 isolates, read-out: MIC50): 0.015 µg/mL | MIC (S. aureus (CiproS); S. aureus (CiproS), 21 isolates, read-out: MIC Range): 0.008 to 0.03 µg/mL | MIC90 (M. catarrhalis): 0.03 µg/mL | MIC50 (M. catarrhalis; M. catarrhalis, 18 isolates, read-out: MIC50): 0.015 µg/mL | MIC (M. catarrhalis; M. catarrhalis, 18 isolates, read-out: MIC Range): 0.015 to 0.03 µg/mL | MIC90 (Enterobacter spp.; Enterobacter): 0.03 µg/mL | MIC50 (Enterobacter spp.; Enterobacter spp., 35 isolates, read-out: MIC50): 0.015 µg/mL | MIC (Enterobacter spp.; Enterobacter spp., 35 isolates, read-out: MIC Range): 0.004 to 0.12 µg/mL | MIC (E. faecium (CiproR)): 0.5 to 4 µg/mL | MIC50 (P. aeruginosa (CiproS); read-out: MIC50): 0.12 µg/mL | MIC90 (P. aeruginosa (CiproS); read-out: MIC90): 1 µg/mL | MIC (P. aeruginosa (CiproS); read-out: MIC Range): 0.06 to 1 µg/mL | MIC50 (B. fragilis): 0.03 µg/mL | MIC90 (B. fragilis): 0.03 µg/mL | MIC (B. fragilis; B. fragilis, 18 isolates, read-out: MIC Range): 0.015 to 0.06 µg/mL | MIC90 (E. faecium (CiproS)): 0.5 µg/mL | MIC (E. faecium (CiproS); read-out: MIC Range): 0.25 to 0.5 µg/mL | MIC50 (E. faecium (CiproS); E. faecium (CiproS), 16 isolates, read-out: MIC50): 0.5 µg/mL | MIC90 (S. pneumoniae (PenS)): 0.06 µg/mL | MIC50 (S. pneumoniae (PenS); S. pneumoniae (PenS), 20 isolates, read-out: MIC50): 0.06 µg/mL | MIC (S. pneumoniae (PenS); S. pneumoniae (PenS), 20 isolates, read-out: MIC Range): 0.03 to 0.06 µg/mL | MIC (S. pneumoniae (CiproR)): 0.06 to 0.12 µg/mL | MIC90 (C. freundii): 0.12 µg/mL | MIC50 (C. freundii; C. freundii, 20 isolates, read-out: MIC50): 0.015 µg/mL | MIC (C. freundii; C. freundii, 20 isolates, read-out: MIC Range): 0.008 to 0.12 µg/mL | MIC (Shigella spp.): 0.001 to 0.008 µg/mL | MIC90 (E. faecium (VanS)): 0.25 µg/mL | MIC (E. faecium (VanS); read-out: MIC Range): 0.06 to 0.5 µg/mL | MIC50 (E. faecium (VanS); E. faecium (VanS), 11 isolates, read-out: MIC50): 0.25 µg/mL | MIC90 (N. gonorrhoeae): 0.015 µg/mL | MIC50 (N. gonorrhoeae; N. gonorrhoeae, 12 isolates, read-out: MIC50): 0.002 µg/mL | MIC (N. gonorrhoeae; N. gonorrhoeae, 12 isolates, read-out: MIC Range): 0.002 to 0.015 µg/mL | MIC50 (Legionella spp.): 0.25 µg/mL | MIC90 (Legionella spp.): 0.25 µg/mL | MIC (Legionella spp.; read-out: MIC Range): 0.12 to 0.25 µg/mL
